Assay [1] has as its system LTD4 evoked contractions of guinea pig ileum. Description: Percent inhibition of LTD4 evoked ileal contractions (single submaximal LTD4 response, 5 minute drug exposure). The assay is classed as cell-based, guinea pig (male, Hartley). To be noted: Cavia porcellus; for inhibition at 1 µM: Compound concentration 1 × 10^-6 M; for inhibition at 0.1 µM: Compound concentration 1 × 10^-7 M; for inhibition at 0.3 µM: Compound concentration 3 × 10^-7 M; for inhibition at 3 µM: Compound concentration 3 × 10^-6 M; for inhibition at 0.03 µM: Compound concentration 3 × 10^-8 M; for inhibition at 0.01 µM: 5 min, Compound concentration 1 × 10^-8. The protocol: Male, Hartley guinea pigs weighing 200-450 grams were killed by decapitation. A section of terminal ileum was removed, the lumen cleaned, and the tissue divided into 2.5 cm. segments. The ilea were mounted in 10 ml. tissue baths containing Krebs-bicarbonate solution of the following composition in mmoles/-liter: KCl, 4.6; CaCl2 ·2H2 O, 1.2; KH2 PO4, 1.2; MgSO4 ·7H2 O, 1.2; NaCl, 118.2; NaHCO3, 24.8; and dextrose, 10.0. The bath fluid was maintained at 37° C. and aerated with 95 percent oxygen and 5 percent CO2. In addition, the buffer contained 1×10^-6 M atropine to reduce ileal spontaneous activity. Isometric measurements were made with a Grass FTO3C force-displacement transducer and recorded on a Grass polygraph as change in grams of force. A passive force of 0.5 g. was applied to the tissues. After an appropriate equilibration period, single submaximal control responses to pure LTD4 were obtained. Following a five minute exposure of the ileum to an experimental drug, the control concentration of LTD was added to the tissue bath. The response of the ileum to LTD4 in the presence of the drug was compared to the response in the absence of the drug.

The target in assay [2] is T1, LTD4 evoked contractions of guinea pig ileum (Cavia porcellus, UniProt Q2NNR5).
T1 construct: A section of terminal ileum was removed, the lumen cleaned, and the tissue divided into 2.5 cm. segments; from tissue; host or cells: terminal ileum of male Hartley guinea pigs
T1 sequence (Q2NNR5 1-340): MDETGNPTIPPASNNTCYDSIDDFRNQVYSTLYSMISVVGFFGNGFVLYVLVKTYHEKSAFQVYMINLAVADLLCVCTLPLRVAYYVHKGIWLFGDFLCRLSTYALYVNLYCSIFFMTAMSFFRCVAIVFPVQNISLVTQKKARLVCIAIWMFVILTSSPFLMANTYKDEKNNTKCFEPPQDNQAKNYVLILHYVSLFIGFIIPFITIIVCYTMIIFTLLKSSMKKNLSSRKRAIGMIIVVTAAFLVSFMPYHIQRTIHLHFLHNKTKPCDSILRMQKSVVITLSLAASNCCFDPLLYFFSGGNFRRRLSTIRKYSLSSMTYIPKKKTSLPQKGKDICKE
Description: LTD4 antagonism, cumulative concentration-response curves (Schild pA2). To be noted: 30 minute incubation, negative log of KB. Type of assay: cell-based. The protocol: For some of the drugs in this series a more detailed analysis of LTD4 antagonism was made. In these experiments, cumulative concentration-response curves were obtained to LTD4 in guinea pig ileum and trachea. This was followed by a 30 minute incubation with various concentrations of the experimental drug. The concentration response curve to LTD4 was then repeated in the presence of the antagonist. Only one concentration of antagonist was used on a single tissue. KB values were calculated by the method of Furchgott [Ann. N.Y. Acad. Sci., 139, 553 (1967)] using the following equation. [formula]
Dose ratio refers to the concentration of agonist required to elicit 50 percent of the maximal response (ED50) in the presence of the antagonist divided by the ED50 in the absence of the antagonist. Calculations were performed with the aid of a computer and a digital plotter.

As usually defined, the inhibition is the change of the read-out against control, counted positive when it falls. What is called pA2 is the negative logarithm of the molar antagonist concentration that doubles the agonist concentration needed for the same response. High values mean higher antagonist potency, low ones lower antagonist potency. In general, Kb refers to the equilibrium dissociation constant of an antagonist, usually derived from a functional assay. A low value points to higher antagonist affinity.

In assay [1], `CCCc1c(COc2ccc3c(=O)cc(C(=O)O)oc3c2CCC)ccc(C(C)=O)c1O` [Example 10, 7-(4-Acetyl-3-hydroxy-2-propylbenzyloxy)-4-oxo-8-propyl-4H-1-benzopyran-2-carboxylic acid] returned an inhibition at 1 µM of 97%, an inhibition at 0.1 µM of 62% and an inhibition at 0.3 µM of 86%. The same molecule came in with a pA2 in assay [2] of 7.42.

With `CCCc1c(COc2ccc(C(=O)O)cc2)ccc(C(C)=O)c1O` [Example 11, 4-(4-Acetyl-3-hydroxy-2-propylbenzyloxy)benzoic acid], in assay [1], the inhibition at 1 µM was 75% and the inhibition at 3 µM stood at 94%. This molecule showed a Kb in assay [2] of 234 nM.

As to `CCCc1c(COc2ccc(CC(=O)O)cc2)ccc(C(C)=O)c1O` [Example 12, 4-(4-Acetyl-3-hydroxy-2-propylbenzyloxy)phenylacetic acid], in assay [1], 1 µM produced 91% inhibition, the inhibition at 0.1 µM amounted to 66%, the inhibition at 0.3 µM was 77% and 0.03 µM produced 37% inhibition. This molecule had a Kb in assay [2] of 60.3 nM.

In assay [1], `CCCc1c(COc2ccc(C(=O)O)c(O)c2)ccc(C(C)=O)c1O` [Example 13, 4-(4-Acetyl-3-hydroxy-2-propylbenzyloxy)-2-hydroxybenzoic acid] had an inhibition at 0.01 µM of 30%, an inhibition at 1 µM of 97%, an inhibition at 0.1 µM of 69% and an inhibition at 0.3 µM of 85%. The inhibition at 0.03 µM in assay [1] was 59%. In assay [2], this molecule gave a Kb of 26.9 nM.

In assay [1], `CCCc1c(COc2cccc(C(=O)O)c2)ccc(C(C)=O)c1O` [Example 14, 3-(4-Acetyl-3-hydroxy-2-propylbenzyloxy)benzoic acid] yielded an inhibition at 1 µM of 31% and an inhibition at 3 µM of 67%. Also, the Kb in assay [2] is 1780 nM.

Turning to `CCCc1c(COc2ccc(CCC(=O)O)cc2)ccc(C(C)=O)c1O` [Example 15, 3-[4-(4-Acetyl-3-hydroxy-2-propylbenzyloxy)phenyl]propionic acid], in assay [1], 1 µM produced 79% inhibition, the inhibition at 0.1 µM was 59% and the inhibition at 0.3 µM was 76%. Further, the Kb in assay [2] is 26.3 nM.

In assay [1], `CCCc1c(COc2ccc(OCC(=O)O)cc2)ccc(C(C)=O)c1O` [Example 16, 4-(4-Acetyl-3-hydroxy-2-propylbenzyloxy)phenoxyacetic acid] gave an inhibition at 1 µM of 88%, an inhibition at 0.1 µM of 54% and an inhibition at 0.3 µM of 88%. Also, in assay [2], the Kb is 87.1 nM.

Take `CCCc1c(COc2ccc(C(=O)O)cc2)ccc(C(=O)c2ccccc2)c1O` [Example 17, 4-(4-Benzoyl-3-hydroxy-2-propylbenzyloxy)benzoic acid]: in assay [1], the inhibition at 1 µM is 5% and the inhibition at 3 µM is 35%. This molecule also gave a Kb in assay [2] of 4470 nM.

In assay [1], `CCCCC(=O)c1ccc(COc2ccc(CC(=O)O)cc2)c(CCC)c1O` [Example 18, 4-(4-Pentanoyl-3-hydroxy-2-propylbenzyloxy)phenylacetic acid] displayed an inhibition at 1 µM of 21% and an inhibition at 3 µM of 65%. In assay [2], this molecule showed a Kb of 2090 nM.

In assay [1], `CCCc1c(COc2ccc(-c3nnn[nH]3)cc2)ccc(C(C)=O)c1O` [Example 32, 5-[4-(4-Acetyl-3-hydroxy-2-propylbenzyloxy)phenyl]tetrazole] came in with an inhibition at 1 µM of 94%, an inhibition at 0.1 µM of 83% and an inhibition at 0.3 µM of 94%. Besides, the Kb in assay [2] was 7.76 nM.

In assay [1], `CCCc1c(COc2ccc(Cc3nnn[nH]3)cc2)ccc(C(C)=O)c1O` [Example 33, 5-[4-(4-Acetyl-3-hydroxy-2-propylbenzyloxy)benzyl]-tetrazole] came in with an inhibition at 0.01 µM of 31%, an inhibition at 1 µM of 100%, an inhibition at 0.1 µM of 92% and an inhibition at 0.3 µM of 94%. Besides, testing at 0.03 µM in assay [1] gave an inhibition of 81%. Moreover, in assay [2], the Kb was 7.59 nM.

With `CCCc1c(COc2ccc(-c3nnn[nH]3)c(O)c2)ccc(C(C)=O)c1O` [Example 34, 5-[4-(4-Acetyl-3-hydroxy-2-propylbenzyloxy)-2-hydroxyphenyl]-tetrazole], in assay [1], testing at 0.01 µM gave an inhibition of 50%, at 0.1 µM the inhibition was 97%, at 0.3 µM the inhibition was 98% and 0.03 µM produced 80% inhibition. Besides, the Kb in assay [2] was 8.71 nM.

In assay [1], `CCCc1c(COc2ccc(CCc3nnn[nH]3)cc2)ccc(C(C)=O)c1O` [Example 35, 5-[2-(4-[4-Acetyl-3-hydroxy-2-propylbenzyloxy]phenyl)ethyl]-tetrazole] registered an inhibition at 0.1 µM of 84%, an inhibition at 0.3 µM of 90% and an inhibition at 0.03 µM of 63%. In assay [2], this molecule had a Kb of 8.32 nM.

In assay [1], `CCCc1c(COc2ccc(C(C)c3nnn[nH]3)cc2)ccc(C(C)=O)c1O` (stereo not shown) [Example 36, 5-[1-(4-[4-Acetyl-3-hydroxy-2-propylbenzyloxy]phenyl)ethyl]-tetrazole] came in with an inhibition at 0.01 µM of 44%, an inhibition at 1 µM of 94%, an inhibition at 0.1 µM of 89% and an inhibition at 0.3 µM of 90%. The molecule further came in with an inhibition at 0.03 µM in assay [1] of 70%. Further, in assay [2], the Kb is 12.6 nM.

In assay [1], `CCCc1c(COc2ccc(C(C)(C)c3nnn[nH]3)cc2)ccc(C(C)=O)c1O` [Example 37, 5-[4-(4-Acetyl-3-hydroxy-2-propylbenzyloxy)-α,α-dimethylbenzyl]-tetrazole] displayed an inhibition at 0.1 µM of 81%, an inhibition at 0.3 µM of 90% and an inhibition at 0.03 µM of 56%. This molecule showed a Kb in assay [2] of 17.4 nM.

`CCCc1c(CSCc2ccc(-c3nnn[nH]3)cc2)ccc(C(C)=O)c1O` [Example 38, 5-[4-(4-Acetyl-3-hydroxy-2-propylbenzylthiomethyl)phenyl]-tetrazole]: in assay [1], the inhibition at 0.1 µM was determined as 29% and 0.3 µM produced 51% inhibition. The Kb in assay [2] is 316 nM.

In assay [1], `CC(=O)c1ccc(COc2ccc(-c3nnn[nH]3)cc2)c(C)c1O` [Example 39, 5-[4-(4-Acetyl-3-hydroxy-2-methylbenzyloxy)phenyl]-tetrazole] yielded an inhibition at 1 µM of 90% and an inhibition at 0.3 µM of 70%. Also, in assay [2], the Kb is 91.2 nM.

In assay [1], `CCCc1c(CSc2ccc(-c3nnn[nH]3)cc2)ccc(C(C)=O)c1O` [Example 40, 5-[4-(4 -Acetyl-3-hydroxy-2-propylbenzylthio)phenyl]-tetrazole] showed an inhibition at 0.1 µM of 79% and an inhibition at 0.03 µM of 58%. In assay [2], the Kb is 20 nM.

As for `CCCc1c(COc2ccc3cc(-c4nn[nH]n4)ccc3c2)ccc(C(C)=O)c1O` [Example 41, 5-[2-(6-[4-Acetyl-3-hydroxy-2-propylbenzyloxy]naphthyl)]-tetrazole], in assay [1], testing at 0.01 µM gave an inhibition of 46% and the inhibition at 0.1 µM worked out at 90%. The molecule further gave an antagonist equilibrium constant (Kb) in assay [2] of 12.3 nM.

In assay [1], `CC(=O)c1ccc(COc2ccc(Cc3nnn[nH]3)cc2)c(CC(C)C)c1O` [Example 42, 5-(4-[4-Acetyl-3-hydroxy-2-(2-methylpropyl)benzyloxy]benzyl)-tetrazole] returned an inhibition at 0.01 µM of 34%, an inhibition at 0.1 µM of 86%, an inhibition at 0.3 µM of 88% and an inhibition at 0.03 µM of 60%. In assay [2], this molecule had a Kb of 20 nM.

For `CCCc1c(CNc2ccc(Cc3nnn[nH]3)cc2)ccc(C(C)=O)c1O` [Example 43, 5-[4-(4-Acetyl-3-hydroxy-2-propylbenzylamino)benzyl]tetrazole], in assay [1], the inhibition at 0.1 µM turned out to be 77% and the inhibition at 0.03 µM was 49%. The Kb in assay [2] was 31.6 nM.

On to `CCc1c(COc2ccc(Cc3nnn[nH]3)cc2)ccc(C(C)=O)c1O` [Example 44, 5-[4-(4-Acetyl-3-hydroxy-2-ethylbenzyloxy)benzyl)-tetrazole], for which, in assay [1], the inhibition at 0.01 µM was 41%, at 0.1 µM the inhibition was 88% and the inhibition at 0.03 µM is 78%. Besides, the Kb in assay [2] is 12.6 nM.

(Values after patent publication US5393768A, “Leukotriene antagonists” (Eli Lilly and Company, priority 1993, dated 1995).)
